Values quoted from earlier work as cited in patent publication US20210113548A1, “METHODS FOR DETERMINING A DRUG DOSING REGIMEN” (Clear Creek Bio, Inc., priority 2019, published 2021).

Legend:
solid tumor malignancies = details: administered over a 5-day period followed by a 3-week gap or once per week for three weeks followed by a 1-week gap

SMILES: Cc1c(-c2ccc(-c3ccccc3F)cc2)nc2ccc(F)cc2c1C(=O)O [brequinar, 6-fluoro-2-(2′-fluoro-1,1′ biphenyl-4-yl)-3-methyl-4-quinoline carboxylic acid]
- efficacy in treatment of solid tumor malignancies (solid tumor malignancies): ineffective
- adverse effects of daily administration of high doses (mouse model of AML): weight loss, anemia, and thrombocytopenia
